US20180044628A1, “Method for Biofilm Control and Treatment” (priority 2015, published 2018)

Experiments:
Assay type in all cases: cell-based, Bacillus subtilis NCIB 3610
[1] = test system: Bacillus subtilis biofilms; assay: Biofilm growth oscillations in a microfluidic device, followed by time-lapse phase contrast microscopy and image differencing
Method: Growth conditions. The biofilms were grown using MSgg medium^16. It contains 5 mM potassium phosphate buffer (pH 7.0), 100 mM MOPS buffer (pH 7.0, adjusted using NaOH), 2 mM MgCl2, 700 μM CaCl2, 50 μM MnCl2, 100 μM FeCl3, 1 μM ZnCl2, 2 μM thiamine HCl, 0.5% (v/v) glycerol and 0.5% (w/v) monosodium glutamate. The MSgg medium was made from stock solutions on the day of the experiment, and the stock solution for glutamate was made each week.
Microfluidics. The CellASIC ONIX Microfluidic Platform and the Y04D microfluidic plate (EMD Millipore) were used. It provides unconventionally large chambers, allowing the formation of colonies containing millions of cells, yet still leaves room for media flow. Media flow in the microfluidic chamber was driven by a pneumatic pump from the CellASIC ONIX Microfluidic Platform, and the pressure from the pump was kept stable during the course of the oscillation. In most of the experiments, a pump pressure of 1 psi was used with only one media inlet open (there are 6 media inlets in the Y04D plate), which corresponds to a flow speed of ˜16 μm/s in the growth chamber.
On the day before the experiment, cells from −80° C. glycerol stock were streaked onto LB agar plate and incubated at 37° C. for overnight. The next day morning, a single colony was picked from the plate and inoculated into 3 ml of LB broth in a 50 ml conical tube, and then incubated in 37° C. shaker. After 2.5 hours of incubation, the cell culture was centrifuged at 2100 rcf for 1 min, and then the cell pellet was re-suspended in MSgg and then immediately loaded into microfluidics. After the loading, cells in the microfluidic chamber were incubated at 37° C. for 90 min, and then the temperature was kept at 30° C. for the rest of the experiment.
Time-Lapse Microscopy. The growth of the biofilms was recorded using phase contrast microscopy. The microscopes used were Olympus IX81 and IX83, and DeltaVision PersonalDV. To image entire biofilms, 10× lens objectives were used in most of the experiments. Images were taken every 10 min Whenever fluorescence images were recorded, the minimum exposure time was used that still provided a good signal-to-noise ratio.
(§1) Biofilm growth rate. ImageJ (National Institutes of Health) and MATLAB (MathWorks) were used for image analysis. In house software was also developed to perform colony detection and quantification of colony expansion. Multiple methods of colony detection were used to ensure the accuracy of the analysis. To detect regions of expansion in a biofilm, image differencing was performed on snapshots of the biofilm from time-lapse microscopy videos. Specifically, the difference between two consecutive phase contrast images (taken 10 min apart) was calculated by finding the absolute difference between each pixel in each image. […] The intensity values from the stack correlate with the expansion inside the biofilm. The growth area was determined by converting difference images to binary images and then measuring the area of the colony growth region (white pixels). To measure cell replication time, the length and division of individual cells were tracked in the biofilm periphery (FIG. 8b).

nasA promoter = assay: PnasA-YFP reporter of glutamine limitation in biofilms, with constitutive Phyperspank-CFP as control
Method: FIG. 2a. […] Glutamine limitation was monitored using YFP expressed from the nasA promoter, which is activated upon glutamine limitation^21. FIG. 2b. […] FIG. 2c. Growth area before and after addition of 1 mM glutamine to an oscillating colony. FIG. 2d. […] FIG. 2e. […] Scale bar represents 100 μm. FIG. 2f. Growth area of an oscillating colony before and after addition of 30 mM glutamate (shading). FIG. 2g.
To determine whether biofilms experience glutamine limitation, expression of nasA, one of several genes activated in response to a lack of glutamine^21, was measured.

[2] = test system: Bacillus subtilis biofilms; assay: Cell death (Sytox Green) and cell growth (difference images) within biofilms under external attack
Method: Scale bar represents 50 μm. […] Error bars represent standard deviations.
Scale bar represents 100 μm.
as §1

[3] = 1 mM glutamine added to growth media

N [ammonium]
colony growth after removal of external ammonium ([1]; additional ammonium (13 mM) suddenly removed from the media): growth in the biofilm periphery halted
effect on periodic halting in biofilm expansion ([1]; media supplemented with 1 mM ammonium): eliminated the periodic halting in biofilm expansion
expression from constitutive reporter (Phyperspank-CFP + 1 mM IPTG) (nasA promoter; 1 mM external ammonium added): does not affect expression from a constitutive reporter
expression from the PnasA-YFP reporter (nasA promoter; 1 mM external ammonium added): represses expression from the PnasA-YFP reporter

O=C(N[C@H](CO)[C@H](O)c1ccc([N+](=O)[O-])cc1)C(Cl)Cl [chloramphenicol]
growth of interior cells after attack ([2]; wild type biofilm, chloramphenicol 5 μg/ml (FIG. 12)): growth of interior cells was observed

N[C@@H](CCC(=O)O)C(=O)[O-].[Na+] [glutamate, monosodium glutamate]
effect on biofilm oscillations ([1]; 30 mM glutamate added to MSgg medium, oscillating colony): not quenched
effect on biofilm oscillations ([1]; glutamate increased by 5 times of normal MSgg levels): leads to quenching of the oscillation

NC(=O)CC[C@H](N)C(=O)O [glutamine]
effect on periodic halting of biofilm growth (oscillations) ([1]; 1 mM glutamine added to MSgg medium, oscillating colony): eliminated periodic halting of biofilm growth
expression of constitutive promoter (Phyperspank-CFP + 1 mM IPTG) (nasA promoter; [3]): did not affect expression of a constitutive promoter
nasA promoter expression (PnasA-YFP) (nasA promoter; [3]): reduced nasA promoter expression

OCC(O)CO [glycerol]
effect on biofilm oscillations ([1]; glycerol increased by 5 times of normal MSgg levels): does not

OO [hydrogen peroxide]
killing of biofilm ([2]; GDH overexpression strain (Phyp-RocG, induced with 1 mM IPTG) exposed to hydrogen peroxide): more effective global killing throughout the biofilm
cell death (Sytox marker) in biofilm ([2]; wild type biofilm, H2O2 2% w/w (FIG. 4b) or 0.15% v/v (FIG. 12)): increased cell death was observed predominantly in the biofilm periphery
growth of interior cells after attack ([2]; wild type biofilm, H2O2 2% w/w (FIG. 4c) or 0.15% v/v (FIG. 12)): led to growth of interior cells
